The values that follow come from PMC12704249, “New Mannich-type arylidenerhodanines as potent inhibitors of AChE and BChE: synthesis, biological evaluation, cytotoxicity and molecular modeling” (RSC Advances, 2025).

Structures are written as SMILES. Like-named read-outs stand apart in the source and are kept apart here.

One test has as its system BChE. The settings on record: in Fig. 1, cited from earlier work.
The test system of another test is AChE. The settings on record: in Fig. 1, cited from earlier work.
Test [1] deals with T1, BChE isolated from equine serum (Equus caballus, UniProt P81908).
T1 construct: BChE isolated from equine serum (≥10 U per mg protein); purchased Sigma-Aldrich (St. Louis, MO, USA); host or cells: equine serum
T1 sequence (P81908 whole entry): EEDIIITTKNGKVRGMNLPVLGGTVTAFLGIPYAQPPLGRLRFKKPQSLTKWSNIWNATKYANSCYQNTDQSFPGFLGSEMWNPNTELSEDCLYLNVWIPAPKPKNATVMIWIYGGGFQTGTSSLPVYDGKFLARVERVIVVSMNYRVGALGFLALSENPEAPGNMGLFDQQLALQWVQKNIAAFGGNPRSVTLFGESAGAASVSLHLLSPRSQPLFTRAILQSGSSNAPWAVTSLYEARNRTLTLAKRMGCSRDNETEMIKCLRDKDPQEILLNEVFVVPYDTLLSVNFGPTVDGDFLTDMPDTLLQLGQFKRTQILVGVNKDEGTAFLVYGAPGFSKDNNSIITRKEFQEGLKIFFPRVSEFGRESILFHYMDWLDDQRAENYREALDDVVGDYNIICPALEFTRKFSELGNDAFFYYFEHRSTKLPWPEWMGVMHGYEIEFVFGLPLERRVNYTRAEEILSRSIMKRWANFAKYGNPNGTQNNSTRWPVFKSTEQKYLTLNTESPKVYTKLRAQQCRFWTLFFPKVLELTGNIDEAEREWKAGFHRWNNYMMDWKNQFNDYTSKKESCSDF
Put plainly: BChE inhibition assay (modified Ellman's colorimetric method, Lineweaver–Burk Ki). Type of test: biochemical. The settings on record: for Ki: 0.1 M Tris–HCl pH 8.0, substrate butyrylthiocholine iodide; for BChE Ki, fold more inhibitory than donepezil: relative to donepezil Ki; for BChE Ki, fold more inhibitory than tacrine: relative to tacrine Ki. As for the experimental part: AChE derived from Electrophorus electricus (electric eel; specific activity: 200–1000 U per mg protein) and BChE isolated from equine serum (≥10 U per mg protein) were obtained from Sigma-Aldrich (St. Louis, MO, USA). Acetylthiocholine chloride (ATChCl) and butyrylthiocholine iodide (BTChI) were utilized as the respective substrates for AChE and BChE assays. All reagent solutions were freshly prepared in 0.1 M Tris–HCl buffer at pH 8.0. The enzymatic activities were assessed spectrophotometrically following a modified protocol based on Ellman's colorimetric method.[46] […] To determine the inhibition constant (Ki), a range of inhibitor concentrations was tested under steady-state conditions. Enzyme kinetic parameters were derived by measuring initial velocities at varying substrate concentrations both in the presence and absence of inhibitors. The Ki values were obtained through Lineweaver–Burk double-reciprocal plots, where 1/V was plotted against 1/[S], allowing for graphical estimation based on the shift in intercepts.[47,48]

Test [2] has as its target T2, AChE derived from Electrophorus electricus (Electrophorus electricus, UniProt O42275).
T2 construct: purchased Sigma-Aldrich (St. Louis, MO, USA)
Put plainly: AChE inhibition assay (modified Ellman's colorimetric method, Lineweaver–Burk Ki). Type of test: biochemical, Electrophorus electricus (electric eel). The settings on record: for Ki: 0.1 M Tris–HCl pH 8.0, substrate acetylthiocholine chloride; for Selectivity (BChE/AChE): ratio of BChE Ki to AChE Ki. An excerpt:
Enzyme kinetic parameters were derived by measuring initial velocities at varying substrate concentrations both in the presence and absence of inhibitors. The Ki values were obtained through Lineweaver–Burk double-reciprocal plots, where 1/V was plotted against 1/[S], allowing for graphical estimation based on the shift in intercepts.[47,48]
(DTNB colorimetry detects thiols as they appear.)

The subject of the next test is HUVEC cell line. Briefly: MTT cell viability assay on HUVEC. The test is classed as cell-based, human. As for the experimental part:
The cell line was cultured in DMEM-F12 medium (Gibco, MD, USA) supplemented with 10% fetal bovine serum (FBS) (Gibco, MD, USA) and 1% penicillin/streptomycin (Gibco, MD, USA) under a 5% CO2 humidified atmosphere at 37 °C.
The MTT proliferation test was conducted to determine the impact of the compounds on cell viability in the HUVEC cell line. The cells were seeded in 96-well plates (1 × 10^4 cells per well) and subsequently allowed to grow for 24 hours. […] Following the treatment duration, MTT solution was added at a final concentration of 0.1 mg mL^−1, and the cells were incubated for 4 hours at 37 °C. Then, the supernatant was discarded, DMSO was added to allow the formazan crystals to dissolve, and the plates were incubated in the dark at room temperature for 30 minutes. The absorbance at 570 nm was determined using a microplate reader (BioTek Instruments, Inc., USA). All cytotoxicity assays were done in three times (three independent experiments). IC50 values are given as mean ± standard deviation (SD). […] The error bars in all the figures show the experimental SD.
For orientation: Formazan colour is commonly taken as a measure of viable cells.

Setting [3] is: Homo sapiens, HUVEC, 24 h, MTT, 24 hours treatment, mean ± SD, n = 3, read-out: HUVEC IC50.

T2 sequence (O42275 24-633): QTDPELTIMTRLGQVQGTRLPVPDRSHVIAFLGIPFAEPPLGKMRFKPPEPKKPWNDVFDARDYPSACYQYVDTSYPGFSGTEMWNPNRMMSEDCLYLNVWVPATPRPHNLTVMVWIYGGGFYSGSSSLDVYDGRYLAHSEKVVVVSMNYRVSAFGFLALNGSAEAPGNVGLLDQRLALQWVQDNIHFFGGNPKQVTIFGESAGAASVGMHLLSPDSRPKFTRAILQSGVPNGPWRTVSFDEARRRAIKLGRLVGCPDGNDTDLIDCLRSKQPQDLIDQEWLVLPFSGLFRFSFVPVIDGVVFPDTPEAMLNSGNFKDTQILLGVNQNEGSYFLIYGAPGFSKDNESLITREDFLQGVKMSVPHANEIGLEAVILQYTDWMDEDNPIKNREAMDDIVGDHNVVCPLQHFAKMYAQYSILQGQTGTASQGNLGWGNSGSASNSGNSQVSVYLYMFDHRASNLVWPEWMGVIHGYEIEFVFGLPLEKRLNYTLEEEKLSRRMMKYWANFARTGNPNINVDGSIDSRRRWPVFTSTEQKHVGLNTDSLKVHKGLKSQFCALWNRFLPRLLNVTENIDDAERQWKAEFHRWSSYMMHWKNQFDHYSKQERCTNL

With `O=C(CN1C(=O)CSC1=S)Nc1ccc([N+](=O)[O-])cc1` [VI], the values for the IC50 in the test on BChE (rhodanine derivatives) and with AChE (rhodanine derivatives) were 7900 nM and 30800 nM, respectively.

Take `C=CCN1C(=O)/C(=C/c2cc(CN3CCN(C)CC3)c(O)c(OC)c2)SC1=S` [Compound 2, (Z)-3-Allyl-5-{4-hydroxy-3-methoxy-5-[(4-methylpiperazin-1-yl)methyl]benzylidene}-2-thioxothiazolidin-4-one]: the Ki in test [1] (Lineweaver–Burk plots) came to 50.9 ± 10.4 nM; in test [2] (Lineweaver–Burk plots) it was 46 ± 5.21 nM. Moreover, the “Selectivity (BChE/AChE)” value in test [2] is recorded as 1.11.

With `C=CCN1C(=O)/C(=C/c2cc(CN3CCc4ccccc4C3)c(O)c(OCC)c2)SC1=S` [Compound 11, (Z)-3-Allyl-5-{3-[(3,4-dihydroisoquinolin-2(1H)-yl)methyl]-4-hydroxy-5-ethoxybenzylidene}-2-thioxothiazolidin-4-one], the Ki in test [1] (Lineweaver–Burk plots) was determined as 25.1 ± 6.41 nM. Besides, in test [1], the “BChE Ki, fold more inhibitory than donepezil” value was over 2.49 fold and the “BChE Ki, fold more inhibitory than tacrine” value was “over 6.75 fold”. Further, in test [2] (Lineweaver–Burk plots), the “form of inhibition of AChE” value is given as “competitive” and affinity was put at a Ki of 12.7 ± 1.96 nM. For the same compound, in the test on HUVEC cell line (setting [3]), the IC50 worked out at 69140 ± 590 nM.

With `C=CCN1C(=O)/C(=C/c2cc(CN3CCOCC3)c(O)c(OC)c2)SC1=S` [Compound 1, (Z)-3-Allyl-5-[4-hydroxy-3-methoxy-5-(morpholinomethyl)benzylidene]-2-thioxothiazolidin-4-one], the Ki in test [1] (Lineweaver–Burk plots) was found to be 53.6 ± 8.87 nM; in test [2] (Lineweaver–Burk plots), 57.6 ± 11.6 nM. Also, the “BChE Ki, fold more inhibitory than tacrine” value in test [1] is given as “more than 3.16 fold”. The “Selectivity (BChE/AChE)” value in test [2] worked out at 0.93.

Take `O=C(CCN1CCN(Cc2ccc(F)cc2)CC1)n1c2ccccc2c2ccccc21` [III]: in the test with AChE, the IC50 is 5700 nM.

With `C=CCN1C(=O)/C(=C/c2cc(CN3CCc4ccccc4C3)c(O)c(OC)c2)SC1=S` [Compound 6, (Z)-3-Allyl-5-{3-[(3,4-dihydroisoquinolin-2(1H)-yl)methyl]-4-hydroxy-5-methoxybenzylidene}-2-thioxothiazolidin-4-one], in test [1] (Lineweaver–Burk plots), the “form of inhibition of BChE” value is reported as “competitive” and the inhibition constant (Ki) turned out to be 10.4 ± 1.33 nM. For the same compound, in test [1], the “BChE Ki, fold more inhibitory than donepezil” value is 5.98 fold and the “BChE Ki, fold more inhibitory than tacrine” value is on record as 16.24 fold. The compound further showed a Ki in test [2] (Lineweaver–Burk plots) of 13.6 ± 1.43 nM. In addition, the “Selectivity (BChE/AChE)” value in test [2] came to 0.77. Moreover, in the test with HUVEC cell line (Homo sapiens, HUVEC, 24 h, read-out: HUVEC IC50, MTT, 24 hours treatment, mean ± SD, n = 3), the IC50 was 79100 nM. Besides, in the test on HUVEC cell line (MTT, 24 hours treatment, mean ± SD, n = 3, read-out: HUVEC IC50), the IC50 amounted to 79710 ± 520 nM.

For the compound `C=CCN1C(=O)/C(=C/c2cc(CN3CCN(c4ncccn4)CC3)c(O)c(OC)c2)SC1=S` [Compound 7, (Z)-3-Allyl-5-(4-hydroxy-3-methoxy-5-{[4-(pyrimidin-2-yl)piperazin-1-yl]methyl}benzylidene)-2-thioxothiazolidin-4-one], the Ki came to 29 ± 7.54 nM in test [1] (Lineweaver–Burk plots) and 25.4 ± 9.45 nM in test [2] (Lineweaver–Burk plots). Moreover, the “BChE Ki, fold more inhibitory than tacrine” value in test [1] was 5.85 fold. In addition, the “Selectivity (BChE/AChE)” value in test [2] came to 1.14. In addition, the IC50 in the test with HUVEC cell line (setting [3]) is 43300 ± 470 nM.

For the compound `c1ccc2cc(-c3nc4ccccn4c3CN3CCOCC3)ccc2c1` [II], the IC50 in the test on BChE is 25.5 nM; with AChE it was 12.6 nM.

Take `C=CCN1C(=O)/C(=C/c2cc(Br)c(O)c(CN3CCOCC3)c2)SC1=S` [Compound 12, (Z)-3-Allyl-5-[3-bromo-4-hydroxy-5-(morpholinomethyl)benzylidene]-2-thioxothiazolidin-4-one]: the Ki in test [1] (Lineweaver–Burk plots) was found to be 97.2 ± 17.9 nM; in test [2] (Lineweaver–Burk plots) it was 43 ± 8.77 nM.

In the case of `O=C(c1ccc2nc(-c3ccc[nH]3)oc2c1)N1CCOCC1` [I], the 50% inhibitory concentration (IC50) in the test with BChE is 99 nM; in the test with AChE it was 57.8 nM.

With `COc1cc(/C=N\NC(=O)c2ccncc2)cc(CN2CCN(c3ccccc3)CC2)c1O` [V], the IC50 with AChE was 230 nM.

Take `C=CCN1C(=O)/C(=C/c2cc(CN3CCN(c4ccccc4)CC3)c(O)c(OCC)c2)SC1=S` [Compound 10, (Z)-3-Allyl-5-{4-hydroxy-3-ethoxy-5-[(4-phenylpiperazin-1-yl)methyl]benzylidene}-2-thioxothiazolidin-4-one]: the Ki in test [1] (Lineweaver–Burk plots) is 21.6 ± 5.23 nM; in test [2] (Lineweaver–Burk plots) it was 18.6 ± 2.05 nM. In addition, the “Selectivity (BChE/AChE)” value in test [2] was 1.16. Moreover, the IC50 with HUVEC cell line (setting [3]) was found to be 47400 ± 670 nM.

Take `O=C(O)c1ccc(/C=N/n2c(CN3CCN(c4ncccn4)CC3)nc3ccccc3c2=O)c(C(=O)O)c1` [IV]: the values for the IC50 in the test with BChE and in the test on AChE were 8650 nM and 9990 nM, respectively.

For `C=CCN1C(=O)/C(=C/c2cc(CN3CCCC(C)C3)c(O)c(OC)c2)SC1=S` (stereo not shown) [Compound 5, (Z)-3-Allyl-5-{4-hydroxy-3-methoxy-5-[(3-methylpiperidin-1-yl)methyl]benzylidene}-2-thioxothiazolidin-4-one], the figures for the Ki in test [1] (Lineweaver–Burk plots) and in test [2] (Lineweaver–Burk plots) were 88.7 ± 15.5 nM and 95.3 ± 11.2 nM, respectively. In addition, in test [2], the “Selectivity (BChE/AChE)” value stood at 0.93.

Consider `CN(C)c1ccc(/C=C2\SC(=S)N(CC(=O)N3CCOCC3)C2=O)cc1` [VII], for which, in the test on AChE (rhodanine derivatives), the IC50 is 52300 nM.

Regarding `C=CCN1C(=O)/C(=C/c2cc(CN3CCN(C(=O)OCC)CC3)c(O)c(OCC)c2)SC1=S` [Compound 9, (Z)-3-Allyl-5-{4-hydroxy-3-ethoxy-5-[(4-ethoxycarbonylpiperazin-1-yl)methyl]benzylidene}-2-thioxothiazolidin-4-one], the values for the Ki in test [1] (Lineweaver–Burk plots) and in test [2] (Lineweaver–Burk plots) were 40.5 ± 6.63 nM and 31.5 ± 5.15 nM, respectively. Further, in test [2], the “Selectivity (BChE/AChE)” value is listed as 1.29.

For `C=CCN1C(=O)/C(=C/c2cc(CN3CCOCC3)c(O)c(CN3CCOCC3)c2)SC1=S` [Compound 13, (Z)-3-Allyl-5-[4-hydroxy-3,5-bis(morpholinomethyl)benzylidene]-2-thioxothiazolidin-4-one], the Ki is 112 ± 23.5 nM in test [1] (Lineweaver–Burk plots) and 26.5 ± 9.21 nM in test [2] (Lineweaver–Burk plots).

Regarding `C=CCN1C(=O)/C(=C/c2cc(CN3CCN(C(=O)OCC)CC3)c(O)c(OC)c2)SC1=S` [Compound 4, (Z)-3-Allyl-5-{4-hydroxy-3-methoxy-5-[(4-ethoxycarbonylpiperazin-1-yl)methyl]benzylidene}-2-thioxothiazolidin-4-one], the Ki in test [1] (Lineweaver–Burk plots) came to 33 ± 9.21 nM; in test [2] (Lineweaver–Burk plots), 28.7 ± 6.12 nM. Also, in test [2], the “Selectivity (BChE/AChE)” value is reported as 1.15. Also, the half-maximal inhibitory concentration (IC50) in the test on HUVEC cell line (setting [3]) was 73130 ± 500 nM.

For the compound `C=CCN1C(=O)/C(=C/c2cc(CN3CCN(c4ccccc4)CC3)c(O)c(OC)c2)SC1=S` [Compound 3, (Z)-3-Allyl-5-{4-hydroxy-3-methoxy-5-[(4-phenylpiperazin-1-yl)methyl]benzylidene}-2-thioxothiazolidin-4-one], the inhibition constant Ki amounted to 67.7 ± 11.4 nM in test [1] (Lineweaver–Burk plots) and 62 ± 13.6 nM in test [2] (Lineweaver–Burk plots). Besides, the “Selectivity (BChE/AChE)” value in test [2] amounted to 1.09.

As to `C=CCN1C(=O)/C(=C/c2cc(CN3CCOCC3)c(O)c(OCC)c2)SC1=S` [Compound 8, (Z)-3-Allyl-5-[4-hydroxy-3-ethoxy-5-(morpholinomethyl)benzylidene]-2-thioxothiazolidin-4-one], the Ki in test [1] (Lineweaver–Burk plots) was found to be 121 ± 12.7 nM; in test [2] (Lineweaver–Burk plots), 85.1 ± 8.45 nM. For the same compound, in test [2], the “Selectivity (BChE/AChE)” value is on record as 1.42.

For orientation: IC50 means the concentration needed to halve the response being measured. Broadly, the Ki is the equilibrium dissociation constant of an inhibitor or competing ligand from its target.
